PMC5201331, “Subchronic Toxicities of HZ1006, a Hydroxamate-Based Histone Deacetylase Inhibitor, in Beagle Dogs and Sprague-Dawley Rats” (International Journal of Environmental Research and Public …, 2016)

Legend:
Beagle dogs = assay: Subchronic toxicity test in Beagle dogs: organ weights; format: in vivo
Method: (§1) HZ1006 was administered orally to dogs (four/sex/group) at doses of 80, 40, 20, 5 and 0 (control) mg/kg/day, and the dosage volume was 2 mL/kg. The dogs received test doses with the exact amounts on a weekly basis based on current body weights. […] The other dogs in the above groups were dissected on the planned days. For the other groups, half of the dogs were anatomized on d28 and the remaining half on d42.
After euthanasia, the following organs or tissues were isolated from the dogs and rats: skin, abnormal lesions, spleen, mammary glands, jejunum, pancreas, ileum, duodenum, stomach, colon, cecum, lymph nodes, mesenteric salivary glands, liver, submandibular lymph nodes, thymus, sternum, lungs, heart, esophagus, trachea, tongue, thyroid with parathyroid gland, sciatic nerve, aorta, femurs, skeletal muscle, pituitary gland, brain, kidneys, eyes, urinary bladder, adrenal glands, uterus, ovaries, testes, epididymis and prostate. The weights of the animal organs, such as the liver, spleen, heart, thymus, brain, lungs, adrenal glands, kidneys, uterus, ovaries, epididymis and testes, were tested using an electronic balance. The organs or tissues were fixed using 10% neutral buffered formalin and were then gradient dehydrated, embedded, sectioned, and stained with routine hematoxylin-eosin prior to histopathological observations.

[1] = Toxicokinetics in Beagle dogs; format: in vivo; settings: for accumulation coefficient R: after 28 days compared with d1; for Tmax / Cmax / half-life / AUC(0-inf): both sexes, Beagle, dog
Method: as §1
The dogs’ blood samples were obtained on the 1st day, the 14th day and the last day (d28) of dosage for plasma HZ1006 content analyses at 0 (1st day only), 1/6, 0.5, 1, 2, 4, 8, 12 and 24 h after dosing, and the blood samples of the rats were acquired on the 1st day and 28th day at the same time as those of the dogs, which were handled and analyzed according to the procedure reported by Zhang et al..

[2] = dog ♂5 (80 mg/kg/day oral), d28
[3] = dog ♂23 (40 mg/kg/day oral), d28
[4] = dogs, 5 mg/kg/day oral, d42 (recovery)
[5] = dogs, 20 mg/kg/day oral, d42 (recovery)
[6] = dogs, 40 mg/kg/day oral, d42 (recovery)
[7] = dogs, 80 mg/kg/day oral, d42 (recovery)
[8] = plasma, po, 5 mg/kg/day, 5 mg/kg/day oral, 14 days
[9] = plasma, po, 5 mg/kg/day, 5 mg/kg/day oral, 28 days
[10] = plasma, po, 5 mg/kg/day, 5 mg/kg/day oral, single
[11] = plasma, po, 20 mg/kg/day, 20 mg/kg/day oral, 14 days
[12] = plasma, po, 20 mg/kg/day, 20 mg/kg/day oral, 28 days
[13] = plasma, po, 20 mg/kg/day, 20 mg/kg/day oral, single
[14] = plasma, po, 40 mg/kg/day, 40 mg/kg/day oral, 14 days
[15] = plasma, po, 40 mg/kg/day, 40 mg/kg/day oral, 28 days
[16] = plasma, po, 40 mg/kg/day, 40 mg/kg/day oral, single
[17] = plasma, po, 80 mg/kg/day, 80 mg/kg/day oral, 14 days
[18] = plasma, po, 80 mg/kg/day, 80 mg/kg/day oral, 28 days
[19] = plasma, po, 80 mg/kg/day, 80 mg/kg/day oral, single

CCCCCCCNc1cc(/C=C/C(=O)NO)ccc1OCCN(CC)CC [HZ1006]
Lung absolute weight (Beagle dogs; [2]): 135.9 g | Lung relative weight (Beagle dogs; [2]): 13.39 | Lung absolute weight (Beagle dogs; [3]): 109.8 g | Lung relative weight (Beagle dogs; [3]): 12.34 | Lung absolute weight (Beagle dogs; dogs, 5 mg/kg/day oral, d28): 72.7 ± 8.2 g | Lung relative weight (Beagle dogs; dogs, 5 mg/kg/day oral, d28): 6.90 ± 0.90 | Testis absolute weight (Beagle dogs; dogs, 5 mg/kg/day oral, d28): 13.550 ± 0.494 g | Testis relative weight (Beagle dogs; dogs, 5 mg/kg/day oral, d28): 1.23 ± 0.03 | Testis absolute weight (Beagle dogs; [4]): 14.050 ± 0.212 g | Testis relative weight (Beagle dogs; [4]): 1.45 ± 0.04 | Lung absolute weight (Beagle dogs; dogs, 20 mg/kg/day oral, d28): 71.4 ± 12.6 g | Lung relative weight (Beagle dogs; dogs, 20 mg/kg/day oral, d28): 6.96 ± 1.02 | Testis absolute weight (Beagle dogs; dogs, 20 mg/kg/day oral, d28): 13.953 ± 0.081 g | Testis relative weight (Beagle dogs; dogs, 20 mg/kg/day oral, d28): 1.31 ± 0.26 | Lung absolute weight (Beagle dogs; [5]): 74.0 ± 8.8 g | Lung relative weight (Beagle dogs; [5]): 7.37 ± 0.67 | Testis absolute weight (Beagle dogs; [5]): 12.179 ± 0.518 g | Testis relative weight (Beagle dogs; [5]): 1.21 ± 0.01 | Lung absolute weight (Beagle dogs; dogs, 40 mg/kg/day oral, d28): 92.4 ± 15.4 g | Lung relative weight (Beagle dogs; dogs, 40 mg/kg/day oral, d28): 9.87 ± 2.14 | Testis absolute weight (Beagle dogs; dogs, 40 mg/kg/day oral, d28): 6.631 ± 2.855 g | Testis relative weight (Beagle dogs; dogs, 40 mg/kg/day oral, d28): 0.69 ± 0.24 | Lung absolute weight (Beagle dogs; [6]): 70.4 ± 5.0 g | Lung relative weight (Beagle dogs; [6]): 7.10 ± 1.13 | Testis absolute weight (Beagle dogs; [6]): 9.400 ± 0.063 g | Testis relative weight (Beagle dogs; [6]): 0.78 ± 0.21 | Lung absolute weight (Beagle dogs; dogs, 80 mg/kg/day oral, d28): 95.8 ± 35.3 g | Lung relative weight (Beagle dogs; dogs, 80 mg/kg/day oral, d28): 9.87 ± 3.27 | Testis absolute weight (Beagle dogs; dogs, 80 mg/kg/day oral, d28): 5.660 ± 1.608 g | Testis relative weight (Beagle dogs; dogs, 80 mg/kg/day oral, d28): 0.61 ± 0.23 | Lung absolute weight (Beagle dogs; [7]): 82.9 ± 6.8 g | Lung relative weight (Beagle dogs; [7]): 8.49 ± 0.95 | Testis absolute weight (Beagle dogs; [7]): 6.017 ± 2.937 g | Testis relative weight (Beagle dogs; [7]): 0.63 ± 0.31 | accumulation coefficient R ([1]; 5 mg/kg/day oral): 1.3 ± 1.2 | accumulation coefficient R ([1]; 80 mg/kg/day oral): 1.2 ± 0.9 | Tmax ([1]; in vivo, 20 mg/kg/day oral, 28 days): 3.17 ± 1.33 h | Cmax ([1]; in vivo, 40 mg/kg/day oral, single): 456 ± 376 ng/mL | half-life ([1]; in vivo, 80 mg/kg/day oral, 28 days): 7.56 ± 3.27 h | AUC(0-inf) [1, 8]: 199 ± 69.6 ng·h/mL | Cmax [1, 8]: 30.1 ± 14.2 ng/mL | Tmax [1, 8]: 4.2 ± 2.01 h | half-life [1, 8]: 4.75 ± 1.23 h | AUC(0-inf) [1, 9]: 616 ± 242 ng·h/mL | Cmax [1, 9]: 65.7 ± 42 ng/mL | Tmax [1, 9]: 4.33 ± 2.94 h | half-life [1, 9]: 7.34 ± 1.02 h | AUC(0-inf) [1, 10]: 193 ± 64.6 ng·h/mL | Cmax [1, 10]: 35.6 ± 15.1 ng/mL | Tmax [1, 10]: 3.67 ± 1.52 h | half-life [1, 10]: 4.4 ± 0.61 h | AUC(0-inf) [1, 11]: 620 ± 249 ng·h/mL | Cmax [1, 11]: 68.1 ± 22.8 ng/mL | Tmax [1, 11]: 4 ± 2.19 h | half-life [1, 11]: 5.21 ± 0.53 h | AUC(0-inf) [1, 12]: 389 ± 104 ng·h/mL | Cmax [1, 12]: 55.2 ± 21.8 ng/mL | half-life [1, 12]: 5.35 ± 0.73 h | AUC(0-inf) [1, 13]: 1190 ± 320 ng·h/mL | Cmax [1, 13]: 139 ± 73.4 ng/mL | Tmax [1, 13]: 3.5 ± 2.51 h | half-life [1, 13]: 5.54 ± 1.53 h | AUC(0-inf) [1, 14]: 1020 ± 977 ng·h/mL | Cmax [1, 14]: 199 ± 175 ng/mL | Tmax [1, 14]: 1.9 ± 1.34 h | half-life [1, 14]: 7.34 ± 3.82 h | AUC(0-inf) [1, 15]: 928 ± 298 ng·h/mL | Cmax [1, 15]: 162 ± 102 ng/mL | Tmax [1, 15]: 2.2 ± 1.1 h | half-life [1, 15]: 5.08 ± 1.04 h | AUC(0-inf) [1, 16]: 2500 ± 1490 ng·h/mL | Tmax [1, 16]: 2.7 ± 2.7 h | half-life [1, 16]: 6.93 ± 3.03 h | AUC(0-inf) [1, 17]: 1550 ± 758 ng·h/mL | Cmax [1, 17]: 174 ± 123 ng/mL | Tmax [1, 17]: 4.43 ± 3.53 h | half-life [1, 17]: 7.23 ± 3.45 h | AUC(0-inf) [1, 18]: 1820 ± 570 ng·h/mL | Cmax [1, 18]: 180 ± 83.4 ng/mL | Tmax [1, 18]: 4.6 ± 3.29 h | AUC(0-inf) [1, 19]: 3870 ± 2630 ng·h/mL | Cmax [1, 19]: 365 ± 257 ng/mL | Tmax [1, 19]: 3.5 ± 2.51 h | half-life [1, 19]: 6.74 ± 2.2 h
